# Test results: paper PMC12102759 (Protein Science : A Publication of the Protein Society, 2025)
# System: PABPC1 PABC
# Type: binding, human
# Conditions: DMS-BM library, bait PABPC1 PABC, row aa = residue at this position; for DMS-derived PSSM value (averaged), position P4 / DMS-derived PSSM value, position P11 / DMS-derived PSSM value, position P4: P = wild type; for DMS-derived PSSM value (averaged), position A6 / DMS-derived PSSM value, position A8: A = wild type; for DMS-derived PSSM value, position R12: R = wild type
# [1] = prey ATXN2, TLNPNAKEFNPRSF(averaged) over the two overlapping peptides
# [2] = prey ATXN2, peptide KSTLNPNAKEFNPRSF, N = wild type
# [3] = prey ATXN2, peptide TLNPNAKEFNPRSFSQ
# [4] = prey ATXN2, TLNPNAKEFNPRSF(averaged) over the two overlapping peptides, K = wild type
# [5] = prey ATXN2, TLNPNAKEFNPRSF(averaged) over the two overlapping peptides, T = wild type
# [6] = prey ATXN2, TLNPNAKEFNPRSF(averaged) over the two overlapping peptides, N = wild type
# [7] = prey ATXN2, peptide TLNPNAKEFNPRSFSQ, F = wild type
# [8] = prey ATXN2, peptide KSTLNPNAKEFNPRSF, S = wild type
# [9] = prey ATXN2, peptide KSTLNPNAKEFNPRSF, F = wild type
# [10] = prey ATXN2, peptide TLNPNAKEFNPRSFSQ, T = wild type
# [11] = prey ATXN2, TLNPNAKEFNPRSF(averaged) over the two overlapping peptides, E = wild type
# [12] = prey ATXN2, peptide TLNPNAKEFNPRSFSQ, N = wild type
# [13] = prey ATXN2, peptide KSTLNPNAKEFNPRSF
# [14] = prey ATXN2, TLNPNAKEFNPRSF(averaged) over the two overlapping peptides, F = wild type
# [15] = prey ATXN2, TLNPNAKEFNPRSF(averaged) over the two overlapping peptides, S = wild type
# [16] = prey ATXN2, peptide KSTLNPNAKEFNPRSF, L = wild type
substance,measurement,setting,value
TLNPNAKEFNPRSF(averaged) P4L (TLNLNAKEFNPRSF),"DMS-derived PSSM value (averaged), position P4",[1],0.1003
KSTLNPNAKEFNPRSF N7M (KSTLNPMAKEFNPRSF),"DMS-derived PSSM value, position N7",[2],0.02788
TLNPNAKEFNPRSFSQ P11D (TLNPNAKEFNDRSFSQ),"DMS-derived PSSM value, position P11",[3],0.005508
TLNPNAKEFNPRSF(averaged) K7D (TLNPNADEFNPRSF),"DMS-derived PSSM value (averaged), position K7",[4],0.01005
TLNPNAKEFNPRSF(averaged) T1K (KLNPNAKEFNPRSF),"DMS-derived PSSM value (averaged), position T1",[5],0.01914
TLNPNAKEFNPRSF(averaged) T1E (ELNPNAKEFNPRSF),"DMS-derived PSSM value (averaged), position T1",[5],0.1201
TLNPNAKEFNPRSF(averaged) A6D (TLNPNDKEFNPRSF),"DMS-derived PSSM value (averaged), position A6",[1],0
TLNPNAKEFNPRSF(averaged) N10I (TLNPNAKEFIPRSF),"DMS-derived PSSM value (averaged), position N10",[6],0.01803
TLNPNAKEFNPRSFSQ E8H (TLNPNAKHFNPRSFSQ),"DMS-derived PSSM value, position E8","prey ATXN2, peptide TLNPNAKEFNPRSFSQ, E = wild type",0.0374
KSTLNPNAKEFNPRSF K9S (KSTLNPNASEFNPRSF),"DMS-derived PSSM value, position K9","prey ATXN2, peptide KSTLNPNAKEFNPRSF, K = wild type",0.05789
TLNPNAKEFNPRSF(averaged) A6I (TLNPNIKEFNPRSF),"DMS-derived PSSM value (averaged), position A6",[1],0.01774
TLNPNAKEFNPRSFSQ F14M (TLNPNAKEFNPRSMSQ),"DMS-derived PSSM value, position F14",[7],0.2558
KSTLNPNAKEFNPRSF S2E (KETLNPNAKEFNPRSF),"DMS-derived PSSM value, position S2",[8],0.01242
KSTLNPNAKEFNPRSF N7I (KSTLNPIAKEFNPRSF),"DMS-derived PSSM value, position N7",[2],0.5578
TLNPNAKEFNPRSFSQ F9H (TLNPNAKEHNPRSFSQ),"DMS-derived PSSM value, position F9",[7],0
TLNPNAKEFNPRSF(averaged) P4F (TLNFNAKEFNPRSF),"DMS-derived PSSM value (averaged), position P4",[1],0.005863
TLNPNAKEFNPRSFSQ F14V (TLNPNAKEFNPRSVSQ),"DMS-derived PSSM value, position F14",[7],0.06499
TLNPNAKEFNPRSFSQ R12S (TLNPNAKEFNPSSFSQ),"DMS-derived PSSM value, position R12",[3],0.1947
TLNPNAKEFNPRSFSQ R12H (TLNPNAKEFNPHSFSQ),"DMS-derived PSSM value, position R12",[3],0.186
KSTLNPNAKEFNPRSF F16W (KSTLNPNAKEFNPRSW),"DMS-derived PSSM value, position F16",[9],0.01686
TLNPNAKEFNPRSFSQ T1M (MLNPNAKEFNPRSFSQ),"DMS-derived PSSM value, position T1",[10],0.006287
KSTLNPNAKEFNPRSF S2N (KNTLNPNAKEFNPRSF),"DMS-derived PSSM value, position S2",[8],0
KSTLNPNAKEFNPRSF S15L (KSTLNPNAKEFNPRLF),"DMS-derived PSSM value, position S15",[8],0.4164
KSTLNPNAKEFNPRSF F16M (KSTLNPNAKEFNPRSM),"DMS-derived PSSM value, position F16",[9],0.02916
TLNPNAKEFNPRSF(averaged) E8R (TLNPNAKRFNPRSF),"DMS-derived PSSM value (averaged), position E8",[11],0
TLNPNAKEFNPRSFSQ N3M (TLMPNAKEFNPRSFSQ),"DMS-derived PSSM value, position N3",[12],0
TLNPNAKEFNPRSFSQ P4G (TLNGNAKEFNPRSFSQ),"DMS-derived PSSM value, position P4",[3],0.0005247
TLNPNAKEFNPRSF(averaged) E8Q (TLNPNAKQFNPRSF),"DMS-derived PSSM value (averaged), position E8",[11],0.02477
KSTLNPNAKEFNPRSF A8E (KSTLNPNEKEFNPRSF),"DMS-derived PSSM value, position A8",[13],0
TLNPNAKEFNPRSF(averaged) F14G (TLNPNAKEFNPRSG),"DMS-derived PSSM value (averaged), position F14",[14],0.002756
TLNPNAKEFNPRSFSQ K7T (TLNPNATEFNPRSFSQ),"DMS-derived PSSM value, position K7","prey ATXN2, peptide TLNPNAKEFNPRSFSQ, K = wild type",0.006845
KSTLNPNAKEFNPRSF F11Q (KSTLNPNAKEQNPRSF),"DMS-derived PSSM value, position F11",[9],0
KSTLNPNAKEFNPRSF A8T (KSTLNPNTKEFNPRSF),"DMS-derived PSSM value, position A8",[13],0
TLNPNAKEFNPRSFSQ F14W (TLNPNAKEFNPRSWSQ),"DMS-derived PSSM value, position F14",[7],0.01201
KSTLNPNAKEFNPRSF T3W (KSWLNPNAKEFNPRSF),"DMS-derived PSSM value, position T3","prey ATXN2, peptide KSTLNPNAKEFNPRSF, T = wild type",0.01564
KSTLNPNAKEFNPRSF A8W (KSTLNPNWKEFNPRSF),"DMS-derived PSSM value, position A8",[13],0
TLNPNAKEFNPRSF(averaged) N3R (TLRPNAKEFNPRSF),"DMS-derived PSSM value (averaged), position N3",[6],0.012
TLNPNAKEFNPRSF(averaged) S13Q (TLNPNAKEFNPRQF),"DMS-derived PSSM value (averaged), position S13",[15],0.009251
TLNPNAKEFNPRSFSQ F14N (TLNPNAKEFNPRSNSQ),"DMS-derived PSSM value, position F14",[7],0.0664
KSTLNPNAKEFNPRSF N12I (KSTLNPNAKEFIPRSF),"DMS-derived PSSM value, position N12",[2],0.02863
TLNPNAKEFNPRSFSQ N10I (TLNPNAKEFIPRSFSQ),"DMS-derived PSSM value, position N10",[12],0.00743
TLNPNAKEFNPRSF(averaged) K7W (TLNPNAWEFNPRSF),"DMS-derived PSSM value (averaged), position K7",[4],0.01767
KSTLNPNAKEFNPRSF L4H (KSTHNPNAKEFNPRSF),"DMS-derived PSSM value, position L4",[16],0
TLNPNAKEFNPRSF(averaged) A6N (TLNPNNKEFNPRSF),"DMS-derived PSSM value (averaged), position A6",[1],0
TLNPNAKEFNPRSFSQ T1V (VLNPNAKEFNPRSFSQ),"DMS-derived PSSM value, position T1",[10],0.03168
TLNPNAKEFNPRSFSQ P4I (TLNINAKEFNPRSFSQ),"DMS-derived PSSM value, position P4",[3],0.2422
TLNPNAKEFNPRSF(averaged) F9W (TLNPNAKEWNPRSF),"DMS-derived PSSM value (averaged), position F9",[14],0.4279
TLNPNAKEFNPRSFSQ P4D (TLNDNAKEFNPRSFSQ),"DMS-derived PSSM value, position P4",[3],0
TLNPNAKEFNPRSF(averaged) S13R (TLNPNAKEFNPRRF),"DMS-derived PSSM value (averaged), position S13",[15],0.00496
TLNPNAKEFNPRSFSQ P11A (TLNPNAKEFNARSFSQ),"DMS-derived PSSM value, position P11",[3],0.0003099
TLNPNAKEFNPRSF(averaged) P4G (TLNGNAKEFNPRSF),"DMS-derived PSSM value (averaged), position P4",[1],0.00705
TLNPNAKEFNPRSF(averaged) T1Q (QLNPNAKEFNPRSF),"DMS-derived PSSM value (averaged), position T1",[5],0.003845
TLNPNAKEFNPRSF(averaged) E8S (TLNPNAKSFNPRSF),"DMS-derived PSSM value (averaged), position E8",[11],0.04903
TLNPNAKEFNPRSFSQ F9R (TLNPNAKERNPRSFSQ),"DMS-derived PSSM value, position F9",[7],0
KSTLNPNAKEFNPRSF N12K (KSTLNPNAKEFKPRSF),"DMS-derived PSSM value, position N12",[2],0.009595
KSTLNPNAKEFNPRSF L4S (KSTSNPNAKEFNPRSF),"DMS-derived PSSM value, position L4",[16],0
TLNPNAKEFNPRSF(averaged) P4D (TLNDNAKEFNPRSF),"DMS-derived PSSM value (averaged), position P4",[1],0
TLNPNAKEFNPRSF(averaged) S13E (TLNPNAKEFNPREF),"DMS-derived PSSM value (averaged), position S13",[15],0.01358
TLNPNAKEFNPRSFSQ N3G (TLGPNAKEFNPRSFSQ),"DMS-derived PSSM value, position N3",[12],0
TLNPNAKEFNPRSF(averaged) F9K (TLNPNAKEKNPRSF),"DMS-derived PSSM value (averaged), position F9",[14],0.003046
TLNPNAKEFNPRSF(averaged) P4Q (TLNQNAKEFNPRSF),"DMS-derived PSSM value (averaged), position P4",[1],0.01774
KSTLNPNAKEFNPRSF L4N (KSTNNPNAKEFNPRSF),"DMS-derived PSSM value, position L4",[16],0
TLNPNAKEFNPRSF(averaged) L2Q (TQNPNAKEFNPRSF),"DMS-derived PSSM value (averaged), position L2","prey ATXN2, TLNPNAKEFNPRSF(averaged) over the two overlapping peptides, L = wild type",0
